Here are results for 7 compounds from US6417197B1, “Acylated n-hydroxy methyl thalidomide prodrugs with immunomodulator action” (Gruenenthal GmbH, priority 1996, dated 2002).

The subject of one data set is release of TNF-α. The data set is described as follows: LPS-induced release of TNF-α in human mononuclear cells of the peripheral blood (ELISA). The note with it: LPS stimulation; for inhibition at 50 µg/mL: read-out: Inhibition of the release of TNF-α at a final concentration of 50 μg/ml; for IC50: Homo sapiens, linear regression line, read-out: IC50 (50% inhibition of the release of TNF-α). It is filed as cell-based. The protocol:
The release of TNF-α was investigated in vitro on human mononuclear cells of the peripheral blood (T cells, B cells and monocytes), after stimulation with lipopolysaccharide (LPS). LPS is a constituent of the bacterial cell wall and stimulates monocytes and macrophages.
Mononuclear cells were obtained from the heparin-treated blood of at least three volunteer donors. For this purpose, 20 ml blood in each case were separated by known methods via a Ficoll-Paque gradient, and the cells were harvested and washed three times with a cell culture medium. The cell culture medium which was used consisted of RPMI 1640 medium, supplemented with 2 mM glutamine (Life Technologies, Eggenstein), 10% foetal calf serum (Life Technologies), […] streptomycin (Sigma, Deisenhofen), 50 IU/ml penicillin (Sigma, Deisenhofen) and 100 μM β-mercaptoethanol (Merck, Darmstadt). The mononuclear cells were subsequently taken up in 15 ml cell culture medium and were divided into 1 ml batches in sterile 24-hole incubation plates (Sigma) 1 μl dimethylsulphoxide (DMSO, Merck) was added to the 1 ml batches which were used as the control batch. 1 μl of a solution of a compound according to the invention (in DMSO; final concentration in the test: 0.5; 5; 12.5 and 50 μg/ml) was added to the test batches. The batches were incubated for one hour in a CO2 incubation cabinet (5% CO2, 90% atmospheric humidity). 2.5 μg LPS (from E. coli 0127: B8, Sigma, Deisenhofen) was subsequently added as a stimulant to each batch with the exception of the control batches. Incubation of the cultures was continued for 20 hours. Following the incubation, the concentration of TNF-α in the cell culture supernatant liquors was determined by ELISA tests (Boehringer Mannheim).
On the technique in general: In an ELISA, binding on a coated surface is turned into a signal by an enzyme label.

The next data set relates to serum IL-2. Description: SEB-induced increase in serum IL-2 in galactosamine-pretreated balb/c mice. The data set is classed as in vivo. The note with it: 30 minutes before SEB; for Max. inhibition of the increase in serum IL-2 at a dose of 400 mg/kg: 400 mg/kg intraperitoneally, IL-2 2 hours after SEB, balb/c mice.
For data set [1] the following is noted: for solubility in water, corresponding thalidomide amount: thalidomide equivalent of the water solubility; for solubility: water, 25 °C.
The conditions of data set [2]: Arch. Pharm. 321, 371 (1988); cited from earlier work.
Where [3] appears, read: 50 μg/ml, 20 hours, human mononuclear cells.

Values after ≈ are worked out from the molar mass of the structure shown. A value given as a limit tells only on which side of the number the result lay.

One may read the IC50 as the concentration that gives 50% inhibition. As to `CC(C)(C)OC(=O)NCC(=O)OCN1C(=O)CCC(N2C(=O)c3ccccc3C2=O)C1=O` (stereo not shown) [Compound 1, N-t-butyl oxycarbonyl-2-aminoacetic acid-[3-(1,3-dihydro-1,3-dioxo-2H-isoindol-2-yl)-2,6-dioxopiperidin-1-yl]methyl ester], in the data set on release of TNF-α (setting [3]), the inhibition at 50 µg/mL was found to be 78%. In addition, in the data set with release of TNF-α, the IC50 came to 2.7 mg/L (≈ 6.06 µM). The “Max. inhibition of the increase in serum IL-2 at a dose of 400 mg/kg” value (“Max. inhibition of the increase” for short) in the data set with serum IL-2 turned out to be 34%.
As usually defined, the solubility is how much of the substance goes into solution per volume. A higher solubility goes with a readily soluble substance. For `Cl.NCC(=O)OCN1C(=O)CCC(N2C(=O)c3ccccc3C2=O)C1=O` (stereo not shown) [Compound 2, 2-aminoacetic acid-[3-(1,3-dihydro-1,3-dioxo-2H-isoindol-2-yl)-2,6-dioxo-piperidin-1-yl]methyl ester hydrochloride], in the data set on release of TNF-α (setting [3]), the inhibition at 50 µg/mL amounted to 54%. Further, in data set [1], the “solubility in water, corresponding thalidomide amount” value (“solubility in water” below) is listed as 33.6 mg thalidomide/ml and the solubility worked out at 497 mg/mL. Moreover, the “Max. inhibition of the increase” value with serum IL-2 worked out at 68%. Besides, the “ED40 (dose giving 40% reduction in serum IL-2 concentrations)” value with serum IL-2 (intraperitoneal, regression line) is listed as 230 mg/kg.
As a reminder, the melting point is the temperature, or range, at which the solid turns liquid. On to `CNC(C)C(=O)OCN1C(=O)CCC(N2C(=O)c3ccccc3C2=O)C1=O.Cl` (stereo not shown) [Compound 4, 2-m ethylaminopropionic acid-[3-(1,3-dihydro-1,3-dioxo-2H-isoindol-2-yl)-2,6-dioxopiperidin-1-yl]methyl ester hydrochloride], for which the melting point lay in the range of 147 to 151 °C. For the same compound, in data set [1], the “solubility in water” value is over 190 mg thalidomide/ml and the solubility was over 300 mg/mL. Further, in the data set with serum IL-2, the “Max. inhibition of the increase” value is reported as 26%.
As for `CC(C)C(N)C(=O)OCN1C(=O)CCC(N2C(=O)c3ccccc3C2=O)C1=O.Cl` (stereo not shown) [Compound 6, 2-amino-3-methylbutyric acid-[3-(1,3-dihydro-1,3-dioxo-2H-isoindol-2-yl)-2,6-dioxopiperidin-1-yl]methyl ester hydrochloride], the melting point lay within 145 to 150 °C. For the same compound, the inhibition at 50 µg/mL in the data set with release of TNF-α (setting [3]) came out at 97%. Besides, in the data set on release of TNF-α, the IC50 worked out at 2 mg/L. Moreover, in data set [1], the “solubility in water” value is over 190 mg thalidomide/ml and the solubility was over 300 mg/mL. Moreover, the “Max. inhibition of the increase” value in the data set on serum IL-2 stood at 52%.
For the compound `Cl.NCC(=O)NCC(=O)OCN1C(=O)CCC(N2C(=O)c3ccccc3C2=O)C1=O` (stereo not shown) [Compound 8, 2-(aminomethylcarbonylamino) acetic acid-[3(1,3-dihydro-1,3-dioxo-2H-isoindol-2-yl)-2,6-dioxo-piperidin-1-yl]methyl ester hydrochloride], in data set [1], the “solubility in water” value was over 190 mg thalidomide/ml and the solubility is over 300 mg/mL.
As for `O=C1CCC(N2C(=O)c3ccccc3C2=O)C(=O)N1` (stereo not shown) [thalidomide], in data set [2], the “solubility of thalidomide in water” value was 0.012 mg/mL.
For the compound “[3-(1,3-dihydro-1,3-dioxo-2H-isoindol-2-yl)-2,6-dioxo-piperidin-1-yl]-methoxycarbonylpropionic acid [Compound 9]”, the “Inhibition of the release of TNF-α at a final concentration of 50 μg/ml” value with release of TNF-α (setting [3]) came out at 35%.
